Test system: imiquimod-induced psoriasis
Experiment: Imiquimod-induced psoriasis model
Assay type: in vivo, mice
Settings: for Mean scores of the presence of erythema on the skin of animals at the area of induction of psoriasis / Mean scores of the presence of induration on the skin of animals at the area of induction of psoriasis / Mean scores of the presence of peeling on the skin of animals at the area of induction of psoriasis: mean ± SEM; for Mean PASI Scores in IMI-Psoriasis Model: mice
Method in brief: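 Mice given topical imiquimod (5% cream) daily on depilated backs Days 1–14; Compound A in 5% DMSO/40% PEG-400/55% saline from Day 8, clobetasol topical as reference. Daily PASI (erythema, induration, peeling, each 0–4, summed) Days 8–15; spleen weight, open-field behaviour, serum IL-1B, IL-6, IL-17, TNF-α, IL-22, IL-23 at Day 15.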

[1] = IMI + 10 mg/kg, D8 (before start of treatment)

**Q.** Which “Mean scores of the presence of erythema on the skin of animals at the area of induction of psoriasis” value (shortened to “Mean scores of the presence of erythema”) (IMI + 3 mg/kg, D15) does the source give for `Cn1cc(-c2ccccc2)c(-c2cn(C)c(=O)c3[nH]c(-c4cnn(C(F)(F)F)c4)cc23)cc1=O` [Compound A, 6-methyl-4-(1-methyl-2-oxo-5-phenyl-1,2-dihydropyridin-4-yl)-2-(1-(trifluoromethyl)-1H-pyrazol-4-yl)-1,6-dihydro-7H-pyrrolo[2,3-c]pyridin-7-one] here?
**A.** 0.0 ± 0.0

**Q.** What about the “Mean scores of the presence of induration on the skin of animals at the area of induction of psoriasis” value (IMI + 3 mg/kg, D15) of the same molecule?
**A.** 0.1 ± 0.1

**Q.** What about the “Mean scores of the presence of peeling on the skin of animals at the area of induction of psoriasis” value (shortened to “Mean scores of the presence of peeling”) (IMI + 3 mg/kg, D15) of the same molecule?
**A.** 0.3 ± 0.2

**Q.** What about the “Mean scores of the presence of erythema” value [1] of the same molecule?
**A.** 2.3 ± 0.2

**Q.** What about the “Mean scores of the presence of induration on the skin of animals at the area of induction of psoriasis” value [1] of the same molecule?
**A.** 2.6 ± 0.2

**Q.** What about the “Mean scores of the presence of peeling” value [1] of the same molecule?
**A.** 2.3 ± 0.3

**Q.** What about the “Mean scores of the presence of erythema” value (IMI + 10 mg/kg, D9) of the same molecule?
**A.** 1.2 ± 0.2

**Q.** And the “Mean scores of the presence of induration on the skin of animals at the area of induction of psoriasis” value (IMI + 10 mg/kg, D9)?
**A.** 2.0 ± 0.3

**Q.** And the “Mean scores of the presence of peeling” value (IMI + 10 mg/kg, D9)?
**A.** 2.0 ± 0.3

**Q.** And the “Mean scores of the presence of erythema” value (IMI + 10 mg/kg, D10)?
**A.** 1.0 ± 0.2

**Q.** And the “Mean scores of the presence of induration on the skin of animals at the area of induction of psoriasis” value (IMI + 10 mg/kg, D10)?
**A.** 1.8 ± 0.2

**Q.** And the “Mean scores of the presence of peeling” value (IMI + 10 mg/kg, D10)?
**A.** 1.5 ± 0.2

**Q.** What about the “Mean scores of the presence of erythema” value (IMI + 10 mg/kg, D11) of the same molecule?
**A.** 1.3 ± 0.2

**Q.** What about the “Mean scores of the presence of induration on the skin of animals at the area of induction of psoriasis” value (IMI + 10 mg/kg, D11) of the same molecule?
**A.** 1.6 ± 0.2

**Q.** What about the “Mean scores of the presence of peeling” value (IMI + 10 mg/kg, D11) of the same molecule?
**A.** 1.5 ± 0.2

**Q.** What about the “Mean scores of the presence of erythema” value (IMI + 10 mg/kg, D12) of the same molecule?
**A.** 0.5 ± 0.2

**Q.** What about the “Mean scores of the presence of induration on the skin of animals at the area of induction of psoriasis” value (IMI + 10 mg/kg, D12) of the same molecule?
**A.** 1.1 ± 0.2

**Q.** What about the “Mean scores of the presence of peeling” value (IMI + 10 mg/kg, D12) of the same molecule?
**A.** 1.3 ± 0.2

**Q.** And the “Mean scores of the presence of erythema” value (IMI + 10 mg/kg, D13)?
**A.** 0.1 ± 0.1

**Q.** And the “Mean scores of the presence of induration on the skin of animals at the area of induction of psoriasis” value (IMI + 10 mg/kg, D13)?
**A.** 0.8 ± 0.2

**Q.** What about the “Mean scores of the presence of peeling” value (IMI + 10 mg/kg, D13) of the same molecule?
**A.** 0.6 ± 0.2

**Q.** And the “Mean scores of the presence of erythema” value (IMI + 10 mg/kg, D14)?
**A.** 0.0 ± 0.0

**Q.** And the “Mean scores of the presence of induration on the skin of animals at the area of induction of psoriasis” value (IMI + 10 mg/kg, D14)?
**A.** 0.4 ± 0.2

**Q.** And the “Mean scores of the presence of peeling” value (IMI + 10 mg/kg, D14)?
**A.** 0.3 ± 0.2

**Q.** What about the “Mean scores of the presence of erythema” value (IMI + 10 mg/kg, D15) of the same molecule?
**A.** 0.0 ± 0.0

**Q.** What about the “Mean scores of the presence of induration on the skin of animals at the area of induction of psoriasis” value (IMI + 10 mg/kg, D15) of the same molecule?
**A.** 0.1 ± 0.1

**Q.** And the “Mean scores of the presence of peeling” value (IMI + 10 mg/kg, D15)?
**A.** 0.3 ± 0.2

**Q.** And the “Mean PASI Scores in IMI-Psoriasis Model” value (IMI + 1 mg/kg, D8 (before start of treatment))?
**A.** 7.3 ± 0.3

**Q.** And the “Mean PASI Scores in IMI-Psoriasis Model” value (IMI + 1 mg/kg, D9)?
**A.** 7.0 ± 0.4

**Q.** What about the “Mean PASI Scores in IMI-Psoriasis Model” value (IMI + 1 mg/kg, D10) of the same molecule?
**A.** 6.0 ± 0.4

**Q.** What about the “Mean PASI Scores in IMI-Psoriasis Model” value (IMI + 1 mg/kg, D11) of the same molecule?
**A.** 5.8 ± 0.5

**Q.** What about the “Mean PASI Scores in IMI-Psoriasis Model” value (IMI + 1 mg/kg, D12) of the same molecule?
**A.** 4.4 ± 0.3

**Q.** And the “Mean PASI Scores in IMI-Psoriasis Model” value (IMI + 1 mg/kg, D13)?
**A.** 3.1 ± 0.4

**Q.** What about the “Mean PASI Scores in IMI-Psoriasis Model” value (IMI + 1 mg/kg, D14) of the same molecule?
**A.** 2.1 ± 0.3

**Q.** And the “Mean PASI Scores in IMI-Psoriasis Model” value (IMI + 1 mg/kg, D15)?
**A.** 1.1 ± 0.2

**Q.** What about the “Mean PASI Scores in IMI-Psoriasis Model” value (IMI + 3 mg/kg, D8 (before start of treatment)) of the same molecule?
**A.** 6.9 ± 0.4

**Q.** And the “Mean PASI Scores in IMI-Psoriasis Model” value (IMI + 3 mg/kg, D9)?
**A.** 6.8 ± 0.4

**Q.** What about the “Mean PASI Scores in IMI-Psoriasis Model” value (IMI + 3 mg/kg, D10) of the same molecule?
**A.** 5.5 ± 0.3

**Q.** And the “Mean PASI Scores in IMI-Psoriasis Model” value (IMI + 3 mg/kg, D11)?
**A.** 4.0 ± 0.3

**Q.** What about the “Mean PASI Scores in IMI-Psoriasis Model” value (IMI + 3 mg/kg, D12) of the same molecule?
**A.** 3.5 ± 0.4

**Q.** And the “Mean PASI Scores in IMI-Psoriasis Model” value (IMI + 3 mg/kg, D13)?
**A.** 1.8 ± 0.3

**Q.** And the “Mean PASI Scores in IMI-Psoriasis Model” value (IMI + 3 mg/kg, D14)?
**A.** 0.8 ± 0.3

**Q.** What about the “Mean PASI Scores in IMI-Psoriasis Model” value (IMI + 3 mg/kg, D15) of the same molecule?
**A.** 0.4 ± 0.2

**Q.** What about the “Mean PASI Scores in IMI-Psoriasis Model” value [1] of the same molecule?
**A.** 7.1 ± 0.4

**Q.** And the “Mean PASI Scores in IMI-Psoriasis Model” value (IMI + 10 mg/kg, D9)?
**A.** 5.3 ± 0.6

**Q.** What about the “Mean PASI Scores in IMI-Psoriasis Model” value (IMI + 10 mg/kg, D10) of the same molecule?
**A.** 4.3 ± 0.5

**Q.** What about the “Mean PASI Scores in IMI-Psoriasis Model” value (IMI + 10 mg/kg, D11) of the same molecule?
**A.** 4.4 ± 0.4

**Q.** And the “Mean PASI Scores in IMI-Psoriasis Model” value (IMI + 10 mg/kg, D12)?
**A.** 2.9 ± 0.5

**Q.** And the “Mean PASI Scores in IMI-Psoriasis Model” value (IMI + 10 mg/kg, D13)?
**A.** 1.5 ± 0.2

**Q.** And the “Mean PASI Scores in IMI-Psoriasis Model” value (IMI + 10 mg/kg, D14)?
**A.** 0.6 ± 0.2

**Q.** What about the “Mean PASI Scores in IMI-Psoriasis Model” value (IMI + 10 mg/kg, D15) of the same molecule?
**A.** 0.4 ± 0.2

**Q.** What about the “body weight change over the last 7 days” value (mouse, in vivo) of the same molecule?
**A.** weight gains

**Q.** And the “erythema, induration and peeling of the skin at the area of induction” value (mouse, in vivo)?
**A.** significantly reduced

**Q.** And the “use of enrichment (nesting)” value (relative to vehicle-treated psoriasis animals)?
**A.** restored the use of enrichment

**Q.** And the “IL-17 level, lower than vehicle (placebo) treated animals” value (serum, day 15)?
**A.** > 93%

From patent US20260217701A1, “SELECTIVE BET INHIBITORS AND USES THEREOF” (Tay Therapeutics Limited, priority 2022, published 2026)
